Values belong to the compound of their own block, whether it stands above or below them.
Assay: solvent given as SMILES

absorption maximum (in C1CCOC1): 321.23 nm
Structure (SMILES): c1ccc(-c2nc(-c3ccccc3)nc(-n3c4ccccc4c4cc(-n5c6ccccc6c6ccccc65)ccc43)n2)cc1

Structure (SMILES): CCCCN1C(=O)C(=C/C=C/C=C2N(CCCC)c3ccccc3N2CCCC)C(=O)N(CCCC)C1=S
absorption maximum (in CCCCCC): 574 nm | absorption maximum (in CCO): 452 nm | absorption maximum (in CN(C)C=O): 497 nm | absorption maximum (in Cc1ccccc1): 575 nm | absorption maximum (in ClC(Cl)Cl): 559 nm | absorption maximum (in ClCCl): 550 nm

absorption maximum (in C1CCCCC1): 335 nm | absorption maximum (in C1COCCO1): 336 nm | absorption maximum (in CC#N): 334 nm | absorption maximum (in CCO): 336 nm | absorption maximum (in CS(C)=O): 338 nm | absorption maximum (in ClC(Cl)Cl): 338 nm | absorption maximum (in ClCCl): 338 nm
Structure (SMILES): COc1ccc(C#Cc2ccc(C#Cc3ccc(P(=O)(c4ccc(C#Cc5ccc(C#Cc6ccc(OC)cc6)cc5)cc4)c4ccc(C#Cc5ccc(C#Cc6ccc(OC)cc6)cc5)cc4)cc3)cc2)cc1

absorption maximum (in ClCCl): 564 nm
Structure (SMILES): CC(C)(C)OC(=O)CN1CCN(c2ccc3c(-c4ccc(I)cc4)c4ccc(=[N+]5CCN(CC(=O)OC(C)(C)C)CC5)cc-4oc3c2)CC1

Structure (SMILES): CN(C)c1ccc(/C=C/c2cc[n+](CCC[n+]3ccc(/C=C/c4ccc(N(C)C)cc4)cc3)cc2)cc1
absorption maximum (in CC1COC(=O)O1): 485 nm | absorption maximum (in CC#N): 488 nm | absorption maximum (in CC(C)=O): 484 nm | absorption maximum (in CC(C)O): 499 nm | absorption maximum (in CCO): 500 nm | absorption maximum (in CN(C)C=O): 485 nm | absorption maximum (in CO): 494 nm | absorption maximum (in CS(C)=O): 485 nm | absorption maximum (in ClC(Cl)Cl): 501 nm | absorption maximum (in O): 466 nm | absorption maximum (in c1ccncc1): 498 nm

Structure (SMILES): COc1ccc(N(c2ccc(OC)cc2)c2ccc3ccc4c(B(c5c(C)cc(C)cc5C)c5c(C)cc(C)cc5C)ccc5ccc2c3c54)cc1
absorption maximum (in C1CCOC1): 465 nm | absorption maximum (in CC(C)=O): 459 nm | absorption maximum (in CCCCCC): 463 nm | absorption maximum (in Cc1ccccc1): 469 nm | absorption maximum (in ClC(Cl)Cl): 461 nm | absorption maximum (in ClCCl): 461 nm

absorption maximum (in ClCCl): 438 nm
Structure (SMILES): CCCCN(CCCC)c1ccc(C#Cc2cc(C#Cc3ccc(C(F)(F)F)cc3)c(C#Cc3ccc(N(CCCC)CCCC)cc3)cc2C#Cc2ccc(C(F)(F)F)cc2)cc1

absorption maximum (in C1COCCO1): 334 nm | absorption maximum (in CC#N): 332 nm | absorption maximum (in CO): 331 nm | absorption maximum (in ClCCl): 330 nm
Structure (SMILES): COC(=O)c1nc2c(N(C)C)nc(N)nc2n1Cc1ccccc1

absorption maximum (in ClC(Cl)Cl): 405 nm
Structure (SMILES): C[Si](C)(C)c1sc([Si](C)(C)C)c2c1sc1c3sc4c(sc5c4sc4c([Si](C)(C)C)sc([Si](C)(C)C)c45)c3sc12

absorption maximum (in CC#N): 475 nm
Structure (SMILES): C[C@]12SC(=O)C=C1c1nc(-c3ccc(Cl)cc3Cl)[nH]c1C1=CC(=O)S[C@@]12C

absorption maximum (in ClC(Cl)Cl): 303 nm
Structure (SMILES): O=CC1=Cc2cocc2C=C(C=O)C1

absorption maximum (in C1CCOC1): 350 nm
Structure (SMILES): O=S1(=O)C(c2ccsc2)=C(c2ccsc2)c2ccccc21

Structure (SMILES): CN(C)CCNc1ccc([N+](=O)[O-])cc1[N+](=O)[O-]
absorption maximum (in C1CCCCC1): 334 nm | absorption maximum (in C1CCOC1): 352 nm | absorption maximum (in C1COCCO1): 348 nm | absorption maximum (in CC#N): 352 nm | absorption maximum (in CC(C)=O): 352 nm | absorption maximum (in CCCCCC): 330 nm | absorption maximum (in CCO): 348 nm | absorption maximum (in CCOC(C)=O): 347 nm | absorption maximum (in CN(C)C=O): 358 nm | absorption maximum (in CO): 350 nm | absorption maximum (in CS(C)=O): 363 nm | absorption maximum (in Cc1ccccc1): 347 nm | absorption maximum (in ClC(Cl)Cl): 350 nm | absorption maximum (in ClCCl): 352 nm

Structure (SMILES): O=P1(c2ccccc2)C2=C(c3ccccc31)[Si](c1ccccc1)(c1ccccc1)c1cc(N(c3ccccc3)c3ccccc3)ccc12 (stereo unspecified)
absorption maximum (in CC#N): 456 nm | absorption maximum (in CO): 466 nm | absorption maximum (in Cc1ccccc1): 459 nm

absorption maximum (in CO): 375 nm
Structure (SMILES): O=C(O)CCCc1ccc2ccc3cccc4ccc1c2c34

Structure (SMILES): c1ccc(-c2oc(-c3ccccc3)c3ccccc23)cc1
absorption maximum (in C1CCCCC1): 411 nm | absorption maximum (in C1CCOC1): 413 nm | absorption maximum (in CC#N): 411 nm | absorption maximum (in CCO): 411 nm | absorption maximum (in CN(C)C=O): 415 nm | absorption maximum (in CS(C)=O): 416 nm | absorption maximum (in Cc1ccccc1): 414 nm

Structure (SMILES): CCCCCCCCC(=O)Oc1cc2[nH]c(cc2CCOC)c2nc(ccc3[nH]c(cc3CCOC)c3nc1C(CCOC)=C3)C(CCOC)=C2
absorption maximum (in Cc1ccccc1): 647 nm

absorption maximum (in CC#N): 323 nm | absorption maximum (in CCCCCC): 333 nm | absorption maximum (in CO): 333 nm | absorption maximum (in ClC(Cl)Cl): 329 nm
Structure (SMILES): c1ccc2cc(-c3cc(-c4nccs4)nc(-c4nccs4)c3)ccc2c1

Structure (SMILES): N#Cc1c(-n2c3ccc(I)cc3c3cc(I)ccc32)c(-n2c3ccc(I)cc3c3cc(I)ccc32)c(C#N)c(-n2c3ccc(I)cc3c3cc(I)ccc32)c1-n1c2ccc(I)cc2c2cc(I)ccc21
absorption maximum (in Cc1ccccc1): 361 nm

Structure (SMILES): Fc1c(F)c(-n2c3ccccc3c3ccccc32)c(F)c(F)c1/C=C/C(=C(c1ccccc1)c1ccccc1)c1ccccc1
absorption maximum (in Cc1ccccc1): 360 nm

Structure (SMILES): CN1/C(=C/C2=C([O-])C(=O)C2=C2C(=O)NC(=O)NC2=O)C(C)(C)c2ccccc21
absorption maximum (in CCO): 457 nm

absorption maximum (in CS(C)=O): 366 nm | absorption maximum (in ClCCl): 365 nm
Structure (SMILES): CC(C)(C)OC(=O)COc1ccc2c(c1)oc(=O)c1c(=O)oc3ccccc3c12

absorption maximum (in CC#N): 442 nm | absorption maximum (in CN(C)C=O): 490 nm | absorption maximum (in ClCCl): 442 nm
Structure (SMILES): CCN(CC)c1ccc(/C=N/c2ccccc2/N=C/c2ccc(N(CC)CC)cc2O)c(O)c1

absorption maximum (in c1ccccc1): 374 nm
Structure (SMILES): CCOC(=O)CSc1nc(-c2ccc(OC)cc2)c(C)c(C#N)c1C#N

Structure (SMILES): Cc1ccc(-c2cc(-c3ccccc3Cl)c3c(N)nc(N4CCCC4)c(C#N)c3n2)cc1
absorption maximum (in CC#N): 414 nm | absorption maximum (in CC(C)=O): 422 nm | absorption maximum (in CC(C)O): 414 nm | absorption maximum (in CO): 416 nm | absorption maximum (in ClC(Cl)Cl): 418 nm | absorption maximum (in ClCCl): 422 nm | absorption maximum (in c1ccccc1): 426 nm

absorption maximum (in ClCCl): 435 nm
Structure (SMILES): C[Si]1(C)c2cc(-c3ccc(N(c4ccccc4)c4ccccc4)cc3)ccc2C=Cc2ccc(-c3ccc(N(c4ccccc4)c4ccccc4)cc3)cc21

Structure (SMILES): O=S(=O)(c1ccc(N(c2ccccc2)c2ccccc2)cc1)c1ccc(S(=O)(=O)c2ccc(N(c3ccccc3)c3ccccc3)cc2)cc1
absorption maximum (in Cc1ccccc1): 354 nm

Structure (SMILES): c1ccc(-c2nc(-c3ccccc3)nc(-c3ccc(-n4c5ccccc5c5c6c(ccc54)-c4ccccc4C6(c4ccccc4)c4ccccc4)cc3)n2)cc1
absorption maximum (in Cc1ccccc1): 372 nm

Structure (SMILES): C=CCOC(=O)C(C#N)=C1C=C(/C=C/c2ccc(N(C)C)cc2)OC(/C=C/c2ccc(N(C)C)cc2)=C1
absorption maximum (in C1CCOC1): 470 nm | absorption maximum (in C1COCCO1): 462 nm | absorption maximum (in CC#N): 476 nm | absorption maximum (in CN(C)C=O): 486 nm | absorption maximum (in Cc1ccccc1): 467 nm | absorption maximum (in ClC(Cl)Cl): 479 nm | absorption maximum (in ClCCCl): 482 nm | absorption maximum (in ClCCl): 481 nm

absorption maximum (in CC#N): 462 nm | absorption maximum (in CO): 461 nm
Structure (SMILES): O=c1c2ccccc2c2c3c(cccc13)c(-c1ccccc1)c1c3cccc4cccc(c43)c12

Structure (SMILES): O=S(=O)(c1ccc(-c2ccc3c(c2)c2ccccc2n3-c2ccccc2)cc1)c1ccc(-c2ccc3c(c2)c2ccccc2n3-c2ccccc2)cc1
absorption maximum (in Cc1ccccc1): 332 nm

absorption maximum (in C1CCCCC1): 314 nm | absorption maximum (in CC#N): 310 nm | absorption maximum (in CCO): 312 nm
Structure (SMILES): Cc1ccc(/C=C/c2ccccc2-[n+]2noc([O-])c2C)cc1

absorption maximum (in CS(C)=O): 440 nm | absorption maximum (in O): 485 nm | absorption maximum (in OCC(O)CO): 500 nm
Structure (SMILES): C[n+]1ccnc(/C=C/c2ccc(N(c3ccccc3)c3ccc(/C=C/c4c[n+](C)ccn4)cc3)cc2)c1

absorption maximum (in ClCCl): 365 nm
Structure (SMILES): c1ccc(-n2c3ccccc3c3cc(-c4cccc(-n5c6cccnc6c6c7sc8ccccc8c7ccc65)c4)ccc32)cc1

absorption maximum (in ClCCl): 380 nm
Structure (SMILES): CCn1c2ccc(-c3ccc(-c4cccs4)s3)cc2c2cc(-c3ccc(-c4cccs4)s3)ccc21

absorption maximum (in CCO): 590 nm | absorption maximum (in O): 590 nm
Structure (SMILES): CC/[NH+]=c1\cc2oc3cc(NCCO)c4ccccc4c3nc-2cc1C

Structure (SMILES): COc1cc2c(cc1C=C(C#N)C#N)c1ccccc1n2C
absorption maximum (in C1CCOC1): 423 nm | absorption maximum (in CC#N): 422 nm | absorption maximum (in CCOC(C)=O): 420 nm | absorption maximum (in CN(C)C=O): 428 nm | absorption maximum (in CO): 425 nm | absorption maximum (in CS(C)=O): 427 nm | absorption maximum (in Cc1ccccc1): 425 nm | absorption maximum (in ClC(Cl)Cl): 430 nm | absorption maximum (in ClCCl): 427 nm

absorption maximum (in C1CCOC1): 397 nm
Structure (SMILES): CCCCCCCCCc1c2ccccc2cc2c1oc1c3c(c4ccccc4c12)-c1c(c2oc4cc5ccccc5cc4c2c2ccccc12)OCO3

Structure (SMILES): O=c1c2ccccc2sc2ccc(-n3c4ccccc4c4ccccc43)cc12
absorption maximum (in C1CCOC1): 388 nm | absorption maximum (in CCCCCC): 388 nm | absorption maximum (in Cc1ccccc1): 388 nm | absorption maximum (in ClC(Cl)Cl): 388 nm | absorption maximum (in ClCCl): 388 nm

Structure (SMILES): CN(C)c1ccc(C2=[N+]3C(=Nc4c(-c5ccc(O)cc5)cc(-c5ccc(N(C)C)cc5)n4[B-]3(F)F)C(c3ccc(O)cc3)=C2)cc1
absorption maximum (in C1CCOC1): 775 nm | absorption maximum (in CS(C)=O): 794 nm | absorption maximum (in Cc1ccccc1): 778 nm

absorption maximum (in ClCCl): 406 nm
Structure (SMILES): C1=Cc2ccc(N(c3ccccc3)c3ccccc3)cc2C2(c3cc(N(c4ccccc4)c4ccccc4)ccc31)c1ccccc1-c1ccccc12

absorption maximum (in O): 287 nm
Structure (SMILES): COc1cc(/C=C/C(=O)O)ccc1O

Structure (SMILES): O=c1ccc2cc3ccoc3cc2o1
absorption maximum (in CC(C)O): 298 nm | absorption maximum (in CCO): 299 nm | absorption maximum (in CCOCC): 294 nm | absorption maximum (in CO): 300 nm | absorption maximum (in O): 303 nm

absorption maximum (in C1CCOC1): 414.75 nm
Structure (SMILES): CCN(CC)c1ccc(-c2nc3c(nc2-c2ccc([B-](F)(c4c(C)cc(C)cc4C)c4c(C)cc(C)cc4C)cc2)c2ccccc2n3C)cc1

absorption maximum (in ClC(Cl)Cl): 368 nm
Structure (SMILES): COc1ccc(-c2nc3ccccc3nc2-c2ccc(OC)cc2)cc1

absorption maximum (in CCCCCC): 369 nm
Structure (SMILES): CC(C)[Si](C#Cc1ccc(C#C[Si](C(C)C)(C(C)C)C(C)C)c2nc3c(nc12)Cc1ccccc1-3)(C(C)C)C(C)C

absorption maximum (in CN(C)C=O): 383 nm
Structure (SMILES): CCN(CC)c1ccc(-c2nc(Oc3ccc(-c4nc5cc([N+](=O)[O-])ccc5[nH]4)cc3)nc(Oc3ccc(-c4nc5cc([N+](=O)[O-])ccc5[nH]4)cc3)n2)cc1

Structure (SMILES): CC(C)(C)NC1=C2C=CC=[N+]2[B-](F)(F)n2cccc21
absorption maximum (in C1CCCCC1): 428 nm | absorption maximum (in CC(C)=O): 409.5 nm | absorption maximum (in CCO): 412.5 nm | absorption maximum (in CCOC(C)=O): 412 nm | absorption maximum (in CO): 410 nm | absorption maximum (in OCC(F)(F)F): 406 nm

Source: the Deep4Chem optical property database
